Assay results as given in patent publication US4089947A, “Antibiotic compositions containing validamycin compounds” (priority 1976, dated 1978).
Values joined by “and” are separate entries in the source; they are usually repeats but may differ in a detail not shown here. Equal values may be shown once.

What was measured:
[1] = system: Cladosporium fulvum; assay: Tomato leaf mold control test; format: in vivo; conditions: 50 ppm; 14 days after inoculation; inoculated 3 days before application
Protocol: Tomato leaf mold control test
Tomato plants (variety: ponterosa) are planted in 12 cm in diameter pots, one plant per pot. The seedlings 50 days after potting are used, 6 pots/group.
Applied at the rate of 100 ml./6 pots/group as per Experiment 1.
Pathogenic fungi Cladosporium fulvum is cultured on a potato infusion-sucrose plate at 20° C for 14 days, and a suspension of conidia (5×10^5 /ml.) is prepared from the culture.
The plants are spray-inoculated with the suspension 3 days before application of the drug, at the rate of 5 ml. per pot. The pots are kept in an inoculation chamber at 25° C for 24 hours, and, then they are transferred to a greenhouse.
14 days after inoculation, the specific ratio of the average area of lesion in the leaves is measured.

[2] = system: Oryzias latipes; assay: Acute toxicity for Oryzias latipes (median lethal dose, 48 hours); format: in vivo; conditions: leaving in water solution
Protocol: (§1) The toxicity of the antibiotics can be confirmed, for instance, by administering each of the validamycins C, D, E and F, and validoxylamines A and B, intravenously to mice and measuring the LD50 value, or by measuring the median lethal dose (48 hours) for Oryzias latipes.

[3] = system: Pellicularia sasakii; assay: Abnormal branching of hyphal tips of Pellicularia sasakii (agar dilution bioassay); format: cell-based; conditions: for highest dilution factor that causes an abnormal branching at the hyphal tips of Pellicularia sasakii: 1 mg./ml. aqueous solution as stock solution; for dilution unit (maximum dilution which produces abnormal branching): aqueous solution containing 1000 γ/ml., 27° C for 40 hours
Protocol: Therefore, the bioassay of the antibiotics should be conducted in the following manner.
Pellicularia sasakii is used as the test organism employing plain agar as the assay medium. The test organism is cultivated on a potato (sucrose) agar slant for 2 to 5 days, and the resulting culture is used to inoculate at the center of a 9-cm Petri dish plate of modified Pfeffer's medium, which is then incubated at 27° C for 2 days. By the end of this period, the mycelium will have spread over the entire surface of the plate. The growth on the circumference about 3 to 3.5 cm in radius from the center is cut out with a cork borer and the agar disc thus obtained is used as the inoculum.
A serial dilution series of agar plants containing varying concentrations of the antibiotics is prepared in the same manner as a conventional agar dilution method.
A glass disc of 8 mm in diameter and about 0.2 mm thick, is placed in the center of each of the aforementioned dilution series of agar plates, and the agar disc inoculum is then placed on the glass disc. After incubation at 27° C for 40 hours, the result is evaluated. […] The term dilution unit means the value of maximum dilution which produces such abnormal branching.
Modified Pfeffer's medium, which is employed in this assay, has the following composition.
Before using the medium, the following vitamins are added in the specified amounts. (Weight per ml. of medium)
When a 1 mg./ml. aqueous solution of each of validamycins C, D, E and F and validoxylamines A and B is used as a stock solution, the highest dilution factor that causes an abnormal branching at the hyphal tips of Pellicularia sasakii is as follows.

[4] = system: Pellicularia sasakii; assay: Rice sheath blight control test, remedial; format: in vivo; conditions: inoculation 3 days before application, untreated 34.4cm
Protocol: (§2) Rice sheath blight control test
(§3) Rice Plants (variety: Kinmaze) are planted in earthen pots 9 cm in diameter, 3 stocks per pot. Seedlings 80 days after potting are tested and 6 pots each of them are grouped.
(§4) Pathogenic fungi Pellicularia sasakii is cultivated on a plate of potato infusion-sugar-agar at 30°C for 48 hours, and its agar disc 10mm in diameter is cut out from a peripheral colony. The disc is inserted into the inside space of the leaf sheath near the soil surface, a disc per stem. The pots are kept in a PVC shelter at the temperature of 32°-25° C and the relative humidity of 100-70%. Inoculation is carried out immediately after the applied drug has been air-dried in the prophylactic test, and 3 days before application in the remedial test.
(§5) 10 days after application of the drug, the length of each stem from ground level to the upper edge of the lesion is directly measured.

[5] = system: Rhyzoctonia solani; assay: Cucumber damping-off control test; format: in vivo; conditions: 14 days after sowing
Protocol: Cucumber damping-off control test
Rhyzoctonia solani is cultured on barley medium at 28° C for 5 days. A field soil sample is packed into clay pots 9 cm in diameter, which are then sterilized with steam. The chaff inoculum is evenly worked into the cover soil of each pot to the depth of about 3 cm, at the rate of 2g./pot. The pots are kept in an incubation chamber at 28° C for 4 days and, then, transferred to a greenhouse.
As per Experiment 1, the drug is sprayed onto the soil surface at the rate of 30 ml./6 pots/group.
Healthy seeds of cucumber (variety: Yonyo) are sown by burial in the pots immediately after treatment, at the rate of 10 seeds/pot. The pots are then placed in a greenhouse at 32°-28° C.
14 days after sowing, the results are evaluated against the following coefficients of lesion and the degrees of damage are calculated.
Coefficients of lesion (I)
0.5 : Root hairs alone are slightly affected.
1 : Aerial portions near soil surface and roots affected.
2 : Early stage of damping-off.
3 : Affected at germination; growth inhibited.
Degree of damage (%) =(Σ(nI))/3 × N × 100 wherein n means the number of samples corresponding to each coefficient of lesion and N means the total number of plants.

[6] = Solubilities; format: physicochemical; conditions: methanol
[7] = system: Pellicularia sasakii; assay: Rice sheath blight control test, preventive (prophylactic); format: in vivo; conditions: 10 days after application, untreated 34.4cm
Protocol: as §2, §3, §4, §5

[8] = system: useful plants; assay: Effect on useful plants (general statement); format: in vivo; conditions: even when applied in a high concentration
[9] = system: plant diseases; assay: Control of plant diseases (general statement); format: in vivo; conditions: for controlling effect against plant diseases, for example, the sheath blight of the rice plant: application in vivo; for effectiveness against sheath blight and stem rot of rice plant, damping off and sclerotial blight of vegetables, flowering plants and lumber seedlings: in vivo
[10] = system: men and beasts, as well as to fish; assay: Harmlessness to men, beasts and fish (general statement); conditions: in vivo
[11] = system: bacteria and fungi; assay: Antimicrobial potency / growth inhibition in vitro; format: cell-based
[12] = system: Mice; assay: Acute toxicity in mice, intravenous injection; format: in vivo
Protocol: as §1

[13] = pKa' (neutralization, in aqueous solution); format: physicochemical
Description: 3. The elementary analysis, the molecular formulas as calculated therefrom, pKa' values, neutralization equivalents (molecular weight) and optical rotation values are given in Table 2.

| SMILES | Specific area of lesion [1] | TLm [2] | highest dilution factor that causes an abnormal branching at the hyphal tips of Pellicularia sasakii [3] | dilution unit (maximum dilution which produces abnormal branching) [3] | Remedial effect (percent of the average length of lesion/stem per control untreated) ([4]; 10 ppm) | Remedial effect (percent of the average length of lesion/stem per control untreated) ([4]; 30 ppm) | Remedial effect (percent of the average length of lesion/stem per control untreated) ([4]; 100 ppm) | Remedial effect (percent of the average length of lesion/stem per control untreated) ([4]; 300 ppm) | Degree of damage ([5]; 5 ppm) | Degree of damage ([5]; 20 ppm) | Degree of damage ([5]; 80 ppm) | solubility in methanol [6] | Preventive effect (percent of the average length of lesion/stem per control untreated) ([7]; 3 ppm) | Preventive effect (percent of the average length of lesion/stem per control untreated) ([7]; 10 ppm) | Preventive effect (percent of the average length of lesion/stem per control untreated) ([7]; 30 ppm) | Preventive effect (percent of the average length of lesion/stem per control untreated) ([7]; 100 ppm) | Preventive effect (percent of the average length of lesion/stem per control untreated) ([7]; 300 ppm) | effect on germination, growth, yield and other features of useful plants [8] | controlling effect against plant diseases, for example, the sheath blight of the rice plant [9] | effectiveness against sheath blight and stem rot of rice plant, damping off and sclerotial blight of vegetables, flowering plants and lumber seedlings [9] | further results |
| --- | --- | --- | --- | --- | --- | --- | --- | --- | --- | --- | --- | --- | --- | --- | --- | --- | --- | --- | --- | --- | --- |
| OCC1CC(NC2C=C(COC3OC(CO)C(O)C(O)C3O)C(O)C(O)C2O)C(O)C(O)C1OC1OC(CO)C(O)C(O)C1O (stereo not drawn) [Validamycin C] | 18% | > 1000 ppm | 100 | 100 dilution unit/ml. | 22% | 12% | 10% | 7% | 100% | 84% | 0% | more sparingly soluble | 46% | 34% | 4% | 1% | 0% | do not substantially affect | excellent controlling effect | very effective | Remedial effect (percent of the average length of lesion/stem per control untreated) ([4]; 3 ppm): 68%; harmfulness to men and beasts, as well as to fish [10]: substantially harmless; antimicrobial potency / growth inhibition of bacteria and fungi in vitro [11]: no antimicrobial potency; LD50 [12]: > 2000 mg/kg; pKa' [13]: 6.0 ± 0.2 |
| OCC1=C[C@@H](N[C@@H]2C[C@@H](CO[C@@H]3O[C@H](CO)[C@@H](O)[C@H](O)[C@H]3O)[C@H](O)[C@@H](O)[C@H]2O)[C@H](O)[C@H](O)[C@H]1O [Validamycin D] | 18% and 25% | > 1000 ppm | 10 | 10 dilution unit/ml. | 99% | 20% | 11% | 8% | 100% | 93% | 0% | soluble | 28% | 5% | 1% | 0% | 0% | do not substantially affect | excellent controlling effect | very effective | harmfulness to men and beasts, as well as to fish [10]: substantially harmless; antimicrobial potency / growth inhibition of bacteria and fungi in vitro [11]: no antimicrobial potency; LD50 [12]: > 2000 mg/kg; pKa' [13]: 6.0 ± 0.2 |
| OCC1=C[C@H](N[C@H]2C[C@H](CO)[C@@H](O[C@@H]3O[C@@H](CO)[C@@H](O[C@H]4O[C@@H](CO)[C@@H](O)[C@H](O)[C@H]4O)[C@H](O)[C@H]3O)[C@@H](O)[C@H]2O)[C@@H](O)[C@H](O)[C@H]1O [Validamycin E] | 2% | > 1000 ppm | 70,000 - 80,000 | 80000 dilution unit/ml. | 12% | 11% | 5% | 3% | 10% | 0% | 0% | more sparingly soluble | 3% | 2% | 0% | 0% | 0% | do not substantially affect | excellent controlling effect | very effective | Remedial effect (percent of the average length of lesion/stem per control untreated) ([4]; 1 ppm): 41%; Remedial effect (percent of the average length of lesion/stem per control untreated) ([4]; 3 ppm): 14%; harmfulness to men and beasts, as well as to fish [10]: substantially harmless; antimicrobial potency / growth inhibition of bacteria and fungi in vitro [11]: no antimicrobial potency; LD50 [12]: > 2000 mg/kg; pKa' [13]: 6.1 ± 0.2 |
